# Results: patent publication US20040050294A1, “Coloring material and color filter” (Dai Nippon Printing Co., Ltd., priority 1999, published 2004)
# Assay: Solubility in solvents
# Type: physicochemical
# Details: for solubility in solvents: PGMEA (methoxypropyl acetate): solvent PGMEA; for solubility in solvents: THF: solvent THF; for solubility in solvents: chloroform: solvent chloroform; for solubility in solvents: cyclohexanone: solvent cyclohexanone; for solubility in solvents: ethyl acetate: solvent ethyl acetate; for solubility in solvents: methanol: solvent methanol
solubility in solvents: PGMEA (methoxypropyl acetate) [% by weight],solubility in solvents: THF [% by weight],solubility in solvents: chloroform [% by weight],solubility in solvents: cyclohexanone [% by weight],solubility in solvents: ethyl acetate,solubility in solvents: methanol [% by weight],Structure (SMILES)
2,28.57,50,10,4.55 % by weight,0.2,CCC(C)(C)OC(=O)N/C(=C1/C(=O)N(C(=O)OC(C)(C)CC)C(c2ccc(Cl)cc2)=C1C(=O)OC)c1ccc(Cl)cc1 [compound 1]
0.67,12.5,2,5,1 % by weight,0.1,CCC(C)(C)OC(=O)N/C(=C1/C(=O)NC(c2ccc(Cl)cc2)=C1C(=O)OC)c1ccc(Cl)cc1 [compound 2]
5,–,10,10,not more than 1 % by weight,–,"CCC(C)(C)OC(=O)N1C(=O)C2=C(c3ccc(Cl)cc3)N(C(=O)OC(C)(C)CC)C(=O)C2=C1c1ccc(Cl)cc1 [DPP, N,N′-bis-tert-amyloxycarbonyl-1,4-diketo-3,6-di(4′-chlorophenyl)pyrrolo-[3,4-c]pyrrole, reference compound]"
